Reference: the NIST ThermoML archive (doi:10.1016/j.tca.2013.03.025)

Assay: refractive index (Na D-line) (dimensionless); xn = mol fraction of the nth substance listed
Conditions: 101 kPa, Liquid, Standard Abbe refractometry

CCCCOC(=O)C(C)O (stereo not given) [butyl 2-hydroxypropanoate] + CCCO
refractive index
Conditions	x1 = 0.1	x1 = 0.2	x1 = 0.3001	x1 = 0.3998	x1 = 0.5	x1 = 0.5999	x1 = 0.7001	x1 = 0.7996	x1 = 0.8998	x1 = 1
288.15 K	1.39449	1.4003	1.4052	1.40922	1.41285	1.41543	1.41816	1.42021	1.42209	1.42379
293.15 K	1.39238	1.39818	1.40305	1.40704	1.41067	1.41321	1.41593	1.41798	1.41984	1.42152
298.15 K	1.39028	1.39605	1.40088	1.40485	1.40846	1.41101	1.41369	1.41572	1.41758	1.41925
303.15 K	1.38813	1.39389	1.3987	1.40265	1.40623	1.40877	1.41144	1.41346	1.4153	1.41697
308.15 K	1.38599	1.3917	1.39651	1.40042	1.40398	1.40652	1.40919	1.4112	1.41304	1.41469
313.15 K	1.38382	1.38951	1.39427	1.3982	1.4017	1.40425	1.40691	1.40893	1.41077	1.4124
318.15 K	1.3816	1.38726	1.39198	1.39591	1.39938	1.40195	1.40455	1.40658	1.40842	1.41005
323.15 K	1.37938	1.38505	1.38973	1.39364	1.3971	1.39967	1.40228	1.40433	1.40617	1.40778

CCCCOC(=O)C(C)O (stereo not given) [butyl 2-hydroxypropanoate] + OCCCO
refractive index
Conditions	x1 = 0.0999	x1 = 0.2	x1 = 0.3001	x1 = 0.4	x1 = 0.4999	x1 = 0.5999	x1 = 0.6996	x1 = 0.8001	x1 = 0.9	x1 = 1
288.15 K	1.43875	1.43674	1.43484	1.43308	1.43138	1.42969	1.42809	1.42652	1.4251	1.42379
293.15 K	1.43724	1.4351	1.43311	1.43126	1.42947	1.4277	1.42602	1.42438	1.4229	1.42152
298.15 K	1.43568	1.43346	1.43136	1.42942	1.42754	1.42569	1.42396	1.42225	1.4207	1.41925
303.15 K	1.43417	1.4318	1.4296	1.42758	1.42563	1.42369	1.42187	1.4201	1.4185	1.41697
308.15 K	1.43265	1.43015	1.42783	1.42571	1.42367	1.42167	1.4198	1.41796	1.41629	1.4147
313.15 K	1.43112	1.42848	1.42606	1.42385	1.42173	1.41964	1.4177	1.41579	1.41408	1.41241
318.15 K	1.4296	1.42681	1.42426	1.42197	1.41977	1.41759	1.41556	1.41358	1.41183	1.41006
323.15 K	1.42813	1.42537	1.42267	1.42009	1.41772	1.41555	1.41347	1.41153	1.40962	1.40778

CCCCOC(=O)C(C)O (stereo not given) [butyl 2-hydroxypropanoate] + CC(O)CO
refractive index
Conditions	x1 = 0.0999	x1 = 0.2	x1 = 0.3	x1 = 0.3999	x1 = 0.4998	x1 = 0.6	x1 = 0.6996	x1 = 0.7999	x1 = 0.9	x1 = 1
288.15 K	1.43214	1.43049	1.42918	1.42809	1.42709	1.42629	1.42548	1.42482	1.42412	1.42379
293.15 K	1.43038	1.42865	1.42726	1.42611	1.42506	1.42421	1.42336	1.42266	1.42191	1.42152
298.15 K	1.42861	1.42683	1.42535	1.42414	1.42303	1.42211	1.42124	1.42048	1.4197	1.41925
303.15 K	1.42682	1.42494	1.4234	1.42214	1.42099	1.42002	1.4191	1.41831	1.41749	1.41697
308.15 K	1.42503	1.42307	1.42146	1.42013	1.41894	1.4179	1.41696	1.41611	1.41528	1.4147
313.15 K	1.42323	1.42118	1.4195	1.41814	1.41687	1.41575	1.41482	1.41392	1.41307	1.41241
318.15 K	1.42143	1.41927	1.41751	1.41605	1.41479	1.41365	1.41265	1.41169	1.41083	1.41006
323.15 K	1.41962	1.4173	1.41556	1.41404	1.41275	1.41156	1.41049	1.4095	1.40859	1.40778
